# Data taken from patent US6878689B2, “Preventives or remedies for heart failure” (Kaken Pharmaceutical Co., Ltd., priority 2000, dated 2005).
# Where a SMILES comes first, the peptide text is derived from it. [ ]: non-standard residue; d: D form. d2Nal = N[C@H](Cc1ccc2ccccc2c1)C(=O)O
# System: dogs with occluded anterior descending coronary artery
# Assay: Effect of intravenously administered pralmorelin on cardiac function of dog with anterior descending coronary artery occlusion
# Assay type: in vivo
# Settings: 100 μg/kg i.v.
# Protocol: [Test Example 3] Effect of Intravenously Administered Pralmorelin on the Cardiac Function of Dog with a Model of Anterior Descending Coronary Artery Occlusion
# Using a dog model of acute contractile dysfunction caused by occlusion of the anterior descending coronary artery, the inventors studied the cardiotonic action of pralmorelin.
# The action of pralmorelin on the cardiac dysfunction deteriorated by occlusion of the coronary artery was evaluated by various hemodynamic parameters, cardiac output (CO), stroke volume (SV), maximal positive dP/dt of left ventricular pressure (+dP/dtmax), ejection fraction (EF), mean blood pressure (MBP), heart rate (HR), total peripheral resistance (TPR) and double product (RPP) as an index of myocardial oxygen consumption. • 1. Test Materials and Method • 1) Test Substance and Reagents • (1) Control
# Pralmorelin dihydrochloride (hereunder referred to as KP-102) (prepared by the method described in WO 9304081) was dissolved in distilled water to prepare a 0.5 mg/mL solution. • (3) Reagents
# In the experiment, adult beagles of either sex (weighing 9-11 kg) purchased from Nihon Nosan Kogyo K.K. (Kanagawa, Japan) were used. After arrival, the animals were allowed to eat a solid meal (CD-5, CLEA Japan, Inc. or Labo D Stock, Nark Corp.) and drink water in a room at a temperature of 20±2° C. and at a humidity of 55±15% under illumination for 12 hours a day (from 7:00 to 19:00); the animals were kept under these conditions for at least one week before use. • 3) Method of Measurement
# Anesthesia was introduced by intravenous administration of pentobarbital (30 mg/kg) and in order to maintain anesthesia, pentobarbital (5-6 mg/kg/hr) was injected continuously by means of an infusion pump (FP-W-100, Toyo Sangyo) through a polyethylene cannula retained in the right cephalic vein. The endotracheal cannula was inserted and the chest was opened at the left fourth intercostal space under artificial respiration in a tidal volume of 20 mL/kg at a rate of 18 breaths/min with an artificial respirator (SN-480-3 of Shinano Seisakusho). The left anterior descending coronary artery was carefully detached from the site of origin over a length of 1-2 cm and an occluding thread was passed through.
# The chest was opened at the left fifth intercostal space and a 5-segment conductance catheter (CCS-108-DA, Unique Medical) was inserted from the cardiac apex so that all electrodes would be placed in the left ventricle. A catheter equipped with a 5 Fr microtip pressure transducer (pressure transducer catheter, Model MPC-500, MILLAR) was inserted into the left ventricle through the left carotid artery. The conductance catheter and the pressure transducer catheter inserted into the left ventricle were connected to a built-in amplifier in a ventricular volume-measuring instrument (Integral 3; VPR-1002, Unique Medical) and the changes in the left ventricular pressure (LVP) and the volume of the left ventricle were measured simultaneously. To determine the mean blood pressure (MBP), blood pressure was measured via a blood pressure amplifier (AP641G, Nihon Kohden) from the 5 Fr pressure transducer catheter inserted into the left femoral artery. Heart rate (HR) was measured with a cardiotachometer (AT-601G, Nihon Kohden) from the pulse waves of blood pressure.
# The chest was opened again at the fourth intercostal space and in order to measure the cardiac output (CO(EMF)) (CO as determined by an electromagnetic blood flowmeter based method), a probe connected to an electromagnetic blood flowmeter (MFV-2100, Nihon Kohden) was fitted at the site of origin of the aorta. A spiral electrode was put in the ischemic region that occurred due to the occlusion of coronary artery and a surface electrocardiogram was recorded. A Doppler probe was fitted on the left anterior descending coronary artery and the blood flow was determined with a Doppler blood flowmeter (PD-20, Crystal Biotech). […]
compound,measurement,setting,value
"C[C@H](NC(=O)[C@@H](Cc1ccc2ccccc2c1)NC(=O)[C@@H](C)N)C(=O)N[C@@H](Cc1c[nH]c2ccccc12)C(=O)N[C@H](Cc1ccccc1)C(=O)N[C@@H](CCCCN)C(N)=O [KP-102, D-alanyl-3-(naphthalen-2-yl)-D-alanyl-L-alanyl-L-tryptophyl-D-phenylalanyl-L-lysinamide] (H-[dA][d2Nal]AW[dF]K-NH2)",change in LVEDP,,Neither of the control and KP-102 groups showed changes in LVPsys and LVEDP
same,change in LVPsys,,Neither of the control and KP-102 groups showed changes in LVPsys and LVEDP
same,"change in double product (RPP), index of myocardial oxygen consumption",,Neither group experienced a change in RPP
same,change in heart rate (HR),,Neither of MBP and HR changed
same,change in mean blood pressure (MBP),,Neither of MBP and HR changed
same,change in −dP/dtmax in comparison with control group,,no significant change
same,increase in stroke volume (SV) from baseline before administration,"5 minutes after the administration, n=5, p<0.05 vs control",5%
same,maximum increase in cardiac output (CO) from baseline before administration,"10 minutes after the administration, n=5, p<0.05 vs control",7%
same,increase in +dP/dtmax from baseline before administration,"10 minutes after the administration, p<0.05 vs control for first 20 minutes",7%
same,maximal increase in ejection fraction (EF),"in 10 minutes, significant vs control",10%
same,change in total peripheral resistance (TPR),p<0.05 vs control,dropped following the administration
